Structures can show the parent of a compound that is named as a salt.

Assay [1] has as its target T1, JH2 domain of human Tyk2 (Homo sapiens, UniProt P29597).
T1 construct: 10×His-tagged TYK2 JH2 domain (amino acid 575-876)
Put plainly: JH2 biochemical assay (TR-FRET probe displacement). Format: binding. The method, boiled down: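 10×His-tagged human TYK2 JH2 (aa 575-876, 2 nM) incubated 60 min with 2 nM fluorescent probe, 0.1 nM Tb anti-His antibody and compound (10-point 3-fold series from […] top). TR-FRET 520/495 nm ratio, falling with probe displacement, normalized and fitted to a 4-parameter logistic for IC50.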
Background: TR-FRET usually uses a lanthanide donor and a delayed reading to cut background.

Assay [2] has as its system Tyk2 kinase activity on STAT4. Put plainly: pSTAT4 cell assay (MSD, NK92 cells). Format: cell-based. As to conditions: compounds 1 hr. The method, boiled down: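 IC50 values derive from 4-parameter logistic fits of normalized percent activity against log compound concentration. Phospho-STAT was measured by MSD with anti-STAT4 antibodies after 15 min of 30 ng/mL IL2 in serum-starved NK92 cells pretreated 1 hr with compound.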

Setting [3] is: TR-FRET probe displacement, JH2 domain of human Tyk2.

T1 sequence (P29597 575-876): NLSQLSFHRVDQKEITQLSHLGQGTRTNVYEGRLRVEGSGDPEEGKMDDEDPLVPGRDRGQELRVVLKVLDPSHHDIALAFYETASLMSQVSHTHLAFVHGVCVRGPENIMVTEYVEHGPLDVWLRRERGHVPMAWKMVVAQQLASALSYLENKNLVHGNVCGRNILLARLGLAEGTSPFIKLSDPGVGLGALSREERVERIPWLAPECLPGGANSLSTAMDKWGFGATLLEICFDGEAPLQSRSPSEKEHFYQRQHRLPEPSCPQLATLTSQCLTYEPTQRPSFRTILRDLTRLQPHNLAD

Regarding `CC(=O)Nc1cc2c(cn1)C1(CC1)CN2c1cc(C)nc(N2CCC(C)(C#N)C2)n1` (stereo not drawn) [Example 409, N-(1′-(2-(3-cyano-3-methylpyrrolidin-1-yl)-6-methylpyrimidin-4-yl)-1′,2′-dihydrospiro[cyclopropane-1,3′-pyrrolo[3,2-c]pyridin]-6′-yl)acetamide], the values for the IC50 in assay [1] (setting [3]) and in assay [2] (then stimulated 15 minutes) were 0.01 to 0.1 µM and at least 1 µM, respectively.
For `CCc1cc(N2CC3(CC3)c3cnc(NC(=O)OC)cc32)nc(C(C)(F)F)n1` [Example 311, Methyl (1′-(2-(1,1-difluoroethyl)-6-ethylpyrimidin-4-yl)-1′,2′-dihydrospiro[cyclopropane-1,3′-pyrrolo[3,2-c]pyridin]-6′-yl)carbamate trifluoroacetate], the IC50 in assay [1] (JH2 biochemical assay) is at most 0.01 µM; in assay [2] (stimulated 15 minutes), 0.01 to 0.1 µM.
For the compound `CC(=O)Nc1cc2c(cn1)C1(CC1)CN2c1cc(C(C)(C)O)nc(C(C)(F)F)n1` [Example 399, N-(1′-(2-(1,1-difluoroethyl)-6-(2-hydroxypropan-2-yl)pyrimidin-4-yl)-1′,2′-dihydrospiro[cyclopropane-1,3′-pyrrolo[3,2-c]pyridin]-6′-yl)acetamide], the figures for the IC50 in assay [1] (setting [3]) and in assay [2] (then stimulated 15 minutes) were at most 0.01 µM and 0.01 to 0.1 µM, respectively.
The corresponding values for `CC(=O)Nc1cc2c(cn1)C1(CC1)CN2c1cc(-c2cnn(CCN3CCOCC3)c2)nc(C(C)(F)F)n1` [Example 390, N-(1′-(2-(1,1-difluoroethyl)-6-(1-(2-morpholinoethyl)-1H-pyrazol-4-yl)pyrimidin-4-yl)-1′,2′-dihydrospiro[cyclopropane-1,3′-pyrrolo[3,2-c]pyridin]-6′-yl)acetamide trifluoroacetate] are at most 0.01 µM and at most 0.01 µM.
As to `COCCOc1cc(N2CC3(CC3)c3cnc(NC(C)=O)cc32)nc(C(C)(F)F)c1` [Example 86, N-(1′-(6-(1,1-difluoroethyl)-4-(2-methoxyethoxy)pyridin-2-yl)-1′,2′-dihydrospiro[cyclopropane-1,3′-pyrrolo[3,2-c]pyridin]-6′-yl)acetamide], the IC50 in assay [1] (JH2 biochemical assay) and in assay [2] (stimulated 15 minutes) was at most 0.01 µM in each case.
Regarding `CC(=O)Nc1cc2c(cn1)C1(CC1)CN2c1cc(CCCOC(C)(C)C)nc(C(C)(F)F)n1` [Example 325, N-(1′-(6-(3-(tert-butoxy)propyl)-2-(1,1-difluoroethyl)pyrimidin-4-yl)-1′,2′-dihydrospiro[cyclopropane-1,3′-pyrrolo[3,2-c]pyridin]-6′-yl)acetamide], the values for the half-maximal inhibitory concentration (IC50) in assay [1] (JH2 biochemical assay) and in assay [2] (stimulated 15 minutes) were at most 0.01 µM and 0.01 to 0.1 µM, respectively.
The corresponding values for `CC(=O)Nc1cc2c(cn1)C1(CC1)CN2c1cc(C)cc(OCCF)n1` [Example 355, N-(1′-(6-(2-fluoroethoxy)-4-methylpyridin-2-yl)-1′,2′-dihydrospiro[cyclopropane-1,3′-pyrrolo[3,2-c]pyridin]-6′-yl)acetamide trifluoroacetate] are at most 0.01 µM and 0.1 to 1 µM.
The corresponding values for `CC(=O)Nc1cc2c(cn1)C1(CC1)CN2c1cc(C)cc(C23COC(C)(C2)C3)n1` [Example 306, N-(1′-(4-methyl-6-(1-methyl-2-oxabicyclo[2.1.1]hexan-4-yl)pyridin-2-yl)-1′,2′-dihydrospiro[cyclopropane-1,3′-pyrrolo[3,2-c]pyridin]-6′-yl)acetamide] are 0.01 to 0.1 µM and at least 1 µM.
The corresponding values for `CC(=O)Nc1cc2c(cn1)C1(CC1)CN2c1cc(C)nc(CCS(C)(=O)=O)n1` [Example 319, N-(1′-(6-methyl-2-(2-(methylsulfonyl)ethyl)pyrimidin-4-yl)-1′,2′-dihydrospiro[cyclopropane-1,3′-pyrrolo[3,2-c]pyridin]-6′-yl)acetamide] are 0.01 to 0.1 µM and at least 1 µM.
In the case of `CC(=O)Nc1cc2c(cn1)C1(CC1)CN2c1cc(C)nc(-c2cnn(C)c2C(F)F)n1` [Example 248, N-(1′-(2-(5-(difluoromethyl)-1-methyl-1H-pyrazol-4-yl)-6-methylpyrimidin-4-yl)-1′,2′-dihydrospiro[cyclopropane-1,3′-pyrrolo[3,2-c]pyridin]-6′-yl)acetamide], the IC50 in assay [1] (JH2 biochemical assay) is 0.01 to 0.1 µM; in assay [2] (stimulated 15 minutes) it was at least 1 µM.
In the same order, the values of `CC(=O)Nc1cc2c(cn1)C1(CC1)CN2c1cc(C)cc(-c2cnn(S(C)(=O)=O)c2)n1` [Example 258, N-(1′-(4-methyl-6-(1-(methylsulfonyl)-1H-pyrazol-4-yl)pyridin-2-yl)-1′,2′-dihydrospiro[cyclopropane-1,3′-pyrrolo[3,2-c]pyridin]-6′-yl)acetamide trifluoroacetate] are 0.01 to 0.1 µM and 0.1 to 1 µM.
Regarding `CC(=O)Nc1cc2c(cn1)C1(CC1)CN2c1nc(C2CCCOC2)cs1` (stereo not drawn) [Example 81, N-(1′-(4-(tetrahydro-2H-pyran-3-yl)thiazol-2-yl)-1′,2′-dihydrospiro[cyclopropane-1,3′-pyrrolo[3,2-c]pyridin]-6′-yl)acetamide trifluoroacetate], the IC50 in assay [1] (JH2 biochemical assay) was 0.01 to 0.1 µM; in assay [2] (stimulated 15 minutes), at least 1 µM.
Consider `COC1CC(COc2nc(C)cc(N3CC4(CC4)c4cnc(NC(C)=O)cc43)n2)C1` (stereo not drawn) [Example 372, N-(1′-(2-((3-methoxycyclobutyl)methoxy)-6-methylpyrimidin-4-yl)-1′,2′-dihydrospiro[cyclopropane-1,3′-pyrrolo[3,2-c]pyridin]-6′-yl)acetamide], for which the half-inhibitory concentration (IC50) in assay [1] (setting [3]) is 0.1 to 1 µM; in assay [2] (then stimulated 15 minutes) it was at least 1 µM.
As for `CC(=O)Nc1cc2c(cn1)C1(CC1)CN2c1cc(C)nc(N(C)C)n1` [Example 116, N-(1′-(2-(dimethylamino)-6-methylpyrimidin-4-yl)-1′,2′-dihydrospiro[cyclopropane-1,3′-pyrrolo[3,2-c]pyridin]-6′-yl)acetamide], the half-maximal inhibitory concentration (IC50) is 0.01 to 0.1 µM in assay [1] (JH2 biochemical assay) and at least 1 µM in assay [2] (stimulated 15 minutes).
With `CC(=O)Nc1cc2c(cn1)C1(CC1)CN2c1cc(-c2cnn(C3COC3)c2)nc(C(C)(F)F)n1` [Example 388, N-(1′-(2-(1,1-difluoroethyl)-6-(1-(oxetan-3-yl)-1H-pyrazol-4-yl)pyrimidin-4-yl)-1′,2′-dihydrospiro[cyclopropane-1,3′-pyrrolo[3,2-c]pyridin]-6′-yl)acetamide], the IC50 in assay [1] (setting [3]) and in assay [2] (then stimulated 15 minutes) was at most 0.01 µM throughout.
For `CC(=O)Nc1cc2c(cn1)C1(CC1)CN2c1cc(C)nc(N2CCCC2)n1` [Example 114, N-(1′-(6-methyl-2-(pyrrolidin-1-yl)pyrimidin-4-yl)-1′,2′-dihydrospiro[cyclopropane-1,3′-pyrrolo[3,2-c]pyridin]-6′-yl)acetamide], the 50% inhibitory concentration (IC50) in assay [1] (JH2 biochemical assay) was in the range of 0.01 to 0.1 µM; in assay [2] (stimulated 15 minutes), 0.1 to 1 µM.
Take `CC(=O)Nc1cc2c(cn1)C1(CC1)CN2c1cc(-c2ccncc2F)nc(C(C)(F)F)n1` [Example 381, N-(1′-(2-(1,1-difluoroethyl)-6-(3-fluoropyridin-4-yl)pyrimidin-4-yl)-1′,2′-dihydrospiro[cyclopropane-1,3′-pyrrolo[3,2-c]pyridin]-6′-yl)acetamide trifluoroacetate]: the half-inhibitory concentration (IC50) in assay [1] (setting [3]) and in assay [2] (then stimulated 15 minutes) was at most 0.01 µM throughout.
Regarding `CCOCc1nc(C)cc(N2CC3(CC3)c3cnc(NC(C)=O)cc32)n1` [Example 59, N-(1′-(2-(ethoxymethyl)-6-methylpyrimidin-4-yl)-1′,2′-dihydrospiro[cyclopropane-1,3′-pyrrolo[3,2-c]pyridin]-6′-yl)acetamide], the half-inhibitory concentration (IC50) is 0.1 to 1 µM in assay [1] (JH2 biochemical assay) and at least 1 µM in assay [2] (stimulated 15 minutes).
As to `CC(=O)Nc1cc2c(cn1)C1(CC1)CN2c1cc(-c2cnn(C)c2F)nc(C(C)(F)F)n1` [Example 310, N-(1′-(2-(1,1-difluoroethyl)-6-(5-fluoro-1-methyl-1H-pyrazol-4-yl)pyrimidin-4-yl)-1′,2′-dihydrospiro[cyclopropane-1,3′-pyrrolo[3,2-c]pyridin]-6′-yl)acetamide], the half-maximal inhibitory concentration (IC50) in assay [1] (JH2 biochemical assay) was at most 0.01 µM; in assay [2] (stimulated 15 minutes), 0.01 to 0.1 µM.
The corresponding values for `CC(=O)Nc1cc2c(cn1)C1(CC1)CN2c1cc(C)cc(N2CC(OC(F)F)C2)n1` [Example 198, N-(1′-(6-(3-(difluoromethoxy)azetidin-1-yl)-4-methylpyridin-2-yl)-1′,2′-dihydrospiro[cyclopropane-1,3′-pyrrolo[3,2-c]pyridin]-6′-yl)acetamide] are 0.1 to 1 µM and at least 1 µM.
In the same order, the values of `CCc1cc(N2CC3(CC3)c3cnc(NC(C)=O)cc32)nc(C)n1` [Example 314, N-(1′-(6-ethyl-2-methylpyrimidin-4-yl)-1′,2′-dihydrospiro[cyclopropane-1,3′-pyrrolo[3,2-c]pyridin]-6′-yl)acetamide] are 0.01 to 0.1 µM and at least 1 µM.
In the same order, the values of `CC(=O)Nc1cc2c(cn1)C1(CC1)CN2c1cc(F)nc(C(C)(F)F)n1` [Example 305, N-(1′-(2-(1,1-difluoroethyl)-6-fluoropyrimidin-4-yl)-1′,2′-dihydrospiro[cyclopropane-1,3′-pyrrolo[3,2-c]pyridin]-6′-yl)acetamide trifluoroacetate] are 0.01 to 0.1 µM and 0.1 to 1 µM.
In the case of `CC(=O)Nc1cc2c(cn1)C1(CC1)CN2c1cc(C)nc(OC2CCC2)n1` [Example 138, N-(1′-(2-cyclobutoxy-6-methylpyrimidin-4-yl)-1′,2′-dihydrospiro[cyclopropane-1,3′-pyrrolo[3,2-c]pyridin]-6′-yl)acetamide], the IC50 was 0.01 to 0.1 µM in assay [1] (JH2 biochemical assay) and at least 1 µM in assay [2] (stimulated 15 minutes).
The corresponding values for `COCCN1CCN(c2nc(C)cc(N3CC4(CC4)c4cnc(NC(C)=O)cc43)n2)CC1` [Example 233, N-(1′-(2-(4-(2-methoxyethyl)piperazin-1-yl)-6-methylpyrimidin-4-yl)-1′,2′-dihydrospiro[cyclopropane-1,3′-pyrrolo[3,2-c]pyridin]-6′-yl)acetamide trifluoroacetate] are at least 1 µM and at least 1 µM.

As a reminder, the IC50 is the point on the concentration scale where inhibition reaches its midpoint.

Source of the values: patent US20260258032A1, “TYROSINE KINASE 2 INHIBITORS AND USES THEREOF” (BIOGEN MA INC., priority 2022, published 2026).
